Reference: patent US5162328A, “N-[3-[2-(1H-imidazol-1-yl)ethoxy]phenyl]-4-(2-thienyl)-2-pyrimidinamine and pharmacologically acceptable salts” (American Cyanamid Company, priority 1991, dated 1992)
Values joined by “and” are separate entries in the source; they are usually repeats but may differ in a detail not shown here. Identical values can stand only once.

Assays:
[1] = tested on: immunologically stimulated human basophils; assay: Inhibition of histamine release from immunologically stimulated human basophils; type: cell-based; settings: Homo sapiens
Description: The bronchospasm of allergic asthma is a consequence of the release of mediators, such as histamine and slow-reacting substances from mast cells. The role of mediator release in the induction of an asthmatic attack has been fully reviewed and documented; see […]. and Austen, K. F., Bronchial Asthma Mechanisms and Therapeutics, E. B. Weiss, Editor, Little, Brown and Company, Boston, 163, (1976); Lichtenstein, L. M., Asthma-Physiology, Immunopharmacology and Treatment, Second International Symposium, L. M. Lichtenstein and K. F. Austen, Editors, Academic Press, New York, 51, (1979); and Bell, S. C., et al., Annular Reports in Medicinal Chemistry, 14, 51, H. J. Hess, Editor, Academic Press, New York, (1979). The novel compounds of this invention have been tested by the procedure of Lichtenstein, L. M. and Osler, A. G., J. Exp. […] Dissolve 140.3 g of sodium chloride, 7.45 g of Trizma-Tris Pre-Set, Reagent Grade, pH 7.6 at 25° C. (Sigma Chemical Co.) in sufficient water to give a final volume of 2 liters. (Sigma chemical Co.) (30 mg/ml) Made to 0.075M and 0.5M respectively, with calcium chloride dihydrate and magnesium chloride hexahydrate. A 10 ml portion of 10× Tris Buffer and 1.0 ml of human albumin are diluted to 100 ml with water. A 10 ml portion of 10× Tris Buffer, 1.0 ml of human albumin, 0.8 ml of calcium stock and 0.2 ml of magnesium stock are diluted to 100 ml with water. Behring Diagnostics (Generally used at 10 μg protein/ml final concentration). Strength 1:100 (w:v) allergenic extract, Hollister-Stier Labs. Generally this is diluted 1:1000 to 1:10,000 (considering the vial as stock). Interdermal solutions or intramuscular preparations for hyposensitization, Hollister-Stier Labs. The final concentrations used are on the order of 1 PNU/ml. Using four 20 ml heparinized tubes, […] of blood are withdrawn from subjects with known histamine release to anti-IgE, ragweed antigen or other specific allergen. These 80 ml of blood are mixed with 20 ml of saline containing 0.6 g of dextrose and 1.2 g of dextran. The blood is allowed to sediment at room temperature in two 50 ml polycarbonate centrifuge tubes until a sharp interface develops between the red cells and plasma (60-90 minutes). The plasma, containing the leukocytes, (top) layer from each tube, is withdrawn by pipet and transferred to 50 ml polycarbonate tubes. The plasma is centrifuged for 8 minutes at 110× G at 4° C. The supernatant is carefully poured off as completely as possible and the cell button is resuspended in 2-3 ml of Tris-A buffer using a siliconized Pasteur pipet. The resuspension is accomplished by drawing the liquid gently in an out of the pipet, with the tip below the liquid until an even suspension of cells is obtained. […]

[2] = tested on: passive cutaneous anaphylaxis lesions in the rat; assay: Rat Passive Cutaneous Anaphylaxis Assay (PCA); type: in vivo, rat (male Wistar strain); settings: for Lesion Area (Low IgE): IgE 25 ng/site; for Lesion Area (Low IgE) / Lesion Area (High IgE): mean ± SD; for Lesion Area (High IgE): IgE 50 ng/site
Method: Solutions made by dissolving 0.50 g in 100 ml of normal saline. Mouse monoclonal IgE (ICN Biochemicals) clone SPE-7 directed against DNP is subdivided into 50 ul aliquots and stored at -70° C. DNP-ovalbumin is made by reacting DNP sulfonic acid with ovalbumin dissolved in saline overnight at room temperature. The resulting solution is dialyzed extensively at 4 C to remove unreacted DNPsulfonic acid and stored as 1 mL aliquots of 100 mg/ml at -70° C. Male Wistar strain rats, certified viral free, weighing 250-300 g are obtained from Hilltop Laboratory Animals and housed, in accordance with AALAC standards, on site for at least one week before use. Forty-eight hours before challenge the rats are shaved on the dorsal surfaces and returned to the cages. Twenty-four hours before challenge the rats are given intradermal injections of 0.1 mL, one on each flank, of saline containing IgE at concentrations ranging from 1000 to 250 ng/mL. These injections give a local dose of 100 to 25 ng IgE. The IgE binds to specific receptors on mast cells in the skin. […] To the Evan's blue dye is added sufficient DNP-ovalbumin to make a 1 mg/ml solution. This allergen containing dye is injected intravenously via a tail vein into the rats at 10 ml/Kg. The Evans' blue binds to plasma albumin and remains in the vascular space under conditions of normal capillary permeability. The allergen, which can diffuse into the extravascular space, binds to the IgE on the surface of the cutaneous mast cells and initiates the immediate hypersensitivity response which leads to the release of histamine by intracellular granules of the mast cell. The histamine causes an increase in capillary permeability which allows plasma proteins including the dye tagged albumin to diffuse into the extracellular space resulting in a blue spot in the skin. The size of the lesion is proportional to the amounts of mediators released. This process reaches an optimum in 30 minutes. Thirty minutes after challenge the rats are euthanized by CO2. The skin is reflected from the back and the lesion areas estimated as the product of the largest diameter of the bluespot and the diameter perpendicular to it. A compound which is a mediator release inhibitor will reduce the spot area. The effectiveness of the compounds is determined by Analysis of Variance of the lesion areas grouped by IgE dose and compound. Compounds are considered active at the P<0.05 level. Table II contains the results of the experiments expressed as the areas of the lesions in mm^2. The control lesions for these experiments are also listed. Because more than one compound at a time is tested, some of the control values are repeated in the table. Table III contains the data expressed as a % of the appropriate control.

[3] = 2.0 mg/kg PO 2 hrs, hydrochloride

## Cl.c1cc(Nc2nccc(-c3cccs3)n2)cc(OCCn2ccnc2)c1 [Compound 1, N-[3-[2-(1H-Imidazol-1-yl)ethoxy]phenyl]-4-(2-thienyl)-2-pyrimidinamine hydrochloride]
[1]
  IC50: 100 ± 10 nM
[2]; 0.125 mg/kg PO 2 hrs
  Lesion Area (Low IgE): 87 ± 16 mm^2
  Lesion Area (High IgE): 132 ± 20 mm^2
[2]; 0.25 mg/kg PO 2 hrs
  Lesion Area (Low IgE): 92 ± 13 mm^2
  Lesion Area (High IgE): 127 ± 19 mm^2
[2]; 1.0 mg/kg PO 2 hrs, hydrochloride
  Lesion Area (High IgE): 115 ± 14 mm^2 and 100 ± 20 mm^2 and 129 ± 26 mm^2
[2]; 1.5 mg/kg PO 2 hrs
  Lesion Area (Low IgE): 56 ± 22 mm^2
  Lesion Area (High IgE): 128 ± 43 mm^2
[2]; 1.5 mg/kg PO @ 2 hrs
  % CONTROL (lesion area): 41.8%
[2]; [3]
  Lesion Area (Low IgE): 71 ± 20 mm^2 and 76 ± 14 mm^2
  Lesion Area (High IgE): 103 ± 5 mm^2 and 119 ± 19 mm^2
[2]; 2 mg/kg PO @ 2 hrs, hydrochloride
  % CONTROL (lesion area): 56.8% and 43.3%
[2]; 2.5 mg/kg PO 2 hrs
  Lesion Area (Low IgE): 8 ± 15 mm^2
  Lesion Area (High IgE): 17 ± 30 mm^2
[2]; 2.5 mg/kg PO @ 2 hrs
  % CONTROL (lesion area): 15.0%
